Test systems include MCF7 breast; UACC-257 melanoma; TK-10 renal; SK-OV-3 ovarian; SK-MEL-5 melanoma; UO-31 renal; MDA-MB-435; NCI-H522 lung; SR leukemia; HCC-2998 colon.
Assay in all cases: NCI-60 cell line screen, 48 h

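Interpolation was linear, between the two tested concentrations surrounding the appropriate level; five concentrations were tested over 48 hours in 96-well plates. Here, GI50 denotes the concentration required for 50% inhibition of growth. TGI is the concentration that stops growth completely.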

For the molecule `C=C1CC2(CCCC3(CC(=C)C(=O)O3)C2(C)C)OC1=O` (stereo unspecified), the TGI in the assay on MCF7 breast was determined as 63.7 µM; with UACC-257 melanoma it was 5.78 µM; with TK-10 renal it was 6.31 µM; with SK-OV-3 ovarian, 46.2 µM; with SK-MEL-5 melanoma, 31.8 µM; with UO-31 renal, 9.53 µM. The TGI was found to be 10.1 µM with MDA-MB-435 and 3.7 µM in the assay with NCI-H522 lung.
Take `CC(O)(CNS(=O)(=O)c1ccccc1)c1ccccc1` (stereo unspecified): the TGI in the assay on MCF7 breast, in the assay on TK-10 renal, with SK-OV-3 ovarian, with SK-MEL-5 melanoma, with SR leukemia and with UO-31 renal was more than 100 µM throughout. Further, the TGI with MDA-MB-435 and in the assay on NCI-H522 lung was more than 100 µM in each case.
Regarding `O=S(=O)(O)/C(=C\c1ccccc1)c1ccccc1` (tested in a mixture with another compound), the TGI with MCF7 breast, with UACC-257 melanoma, in the assay on TK-10 renal, with SK-OV-3 ovarian, in the assay with SK-MEL-5 melanoma and in the assay with SR leukemia was more than 100 µM throughout. In addition, the TGI with UO-31 renal, in the assay with MDA-MB-435 and in the assay on NCI-H522 lung was more than 100 µM each time.
On to `Oc1c(I)cc(-c2nc3ccccc3s2)cc1CN(Cc1ccccn1)Cc1ccccn1`, for which the GI50 in the assay with MCF7 breast is 0.34 µM; with UACC-257 melanoma it was 0.87 µM; in the assay on TK-10 renal, 0.46 µM; with HCC-2998 colon, 0.43 µM; in the assay with SK-OV-3 ovarian, 0.437 µM; in the assay on SK-MEL-5 melanoma it was 0.179 µM. For the same molecule, the GI50 with UO-31 renal was 0.272 µM; in the assay with MDA-MB-435, 0.428 µM; in the assay with NCI-H522 lung it was 0.415 µM. The TGI with MCF7 breast was 35 µM; with UACC-257 melanoma, more than 100 µM; in the assay with TK-10 renal, more than 100 µM; with HCC-2998 colon, 43.9 µM; in the assay with SK-OV-3 ovarian, more than 100 µM; in the assay on SK-MEL-5 melanoma it was 0.438 µM. Moreover, the TGI in the assay with UO-31 renal was 2.35 µM; in the assay on MDA-MB-435, 14.3 µM; with NCI-H522 lung it was 14.4 µM.
Consider `C=CCC(N[C@H](CO)c1ccccc1)c1cn(S(=O)(=O)c2ccc(C)cc2)c2ccccc12` (stereo partly specified), for which the GI50 in the assay with MCF7 breast was more than 100 µM; with UACC-257 melanoma, 10.7 µM; in the assay with TK-10 renal, 3.62 µM; in the assay on HCC-2998 colon, 15.8 µM; with SK-OV-3 ovarian, 59.7 µM; in the assay on SK-MEL-5 melanoma it was 26.1 µM. For the same molecule, the GI50 in the assay with UO-31 renal was 94.8 µM; with MDA-MB-435, 19 µM; in the assay with NCI-H522 lung, 18.6 µM. In addition, the TGI in the assay on MCF7 breast was more than 100 µM; with UACC-257 melanoma, 26.7 µM; in the assay on TK-10 renal, 18 µM; with HCC-2998 colon, 33.4 µM; in the assay on SK-OV-3 ovarian, more than 100 µM; in the assay on SK-MEL-5 melanoma, 43.8 µM. For the same molecule, the values for the TGI in the assay with UO-31 renal, in the assay with MDA-MB-435 and in the assay with NCI-H522 lung were more than 100 µM, 46.8 µM and 47.7 µM, respectively.
Turning to `O=C(NNS(=O)(=O)c1ccc(F)cc1)c1cccnc1Nc1ccc(Cl)cc1Cl`, the GI50 with MCF7 breast was 31.5 µM; in the assay on UACC-257 melanoma it was 11.8 µM; in the assay on TK-10 renal, 33.8 µM; with HCC-2998 colon, 30 µM; in the assay with SK-OV-3 ovarian it was 38.1 µM; with SK-MEL-5 melanoma it was 25.3 µM. In addition, the figures for the GI50 with SR leukemia and in the assay on MDA-MB-435 were 22.9 µM and 84.4 µM, respectively. Besides, the TGI in the assay with MCF7 breast is more than 100 µM; in the assay with UACC-257 melanoma, 51.9 µM; with TK-10 renal, more than 100 µM; in the assay on HCC-2998 colon, more than 100 µM; with SK-OV-3 ovarian it was more than 100 µM; with SK-MEL-5 melanoma, 86 µM. The results for the TGI in the assay on SR leukemia and with MDA-MB-435 were 67.6 µM and more than 100 µM, respectively.
In the case of `COc1ccc(C(=O)COc2cccc(/C=C3\CSc4ccc(Cl)cc4C3=O)c2)cc1`, the GI50 is 1.5 µM in the assay on MCF7 breast; 12.6 µM in the assay with UACC-257 melanoma; 19.7 µM with TK-10 renal; 15.5 µM in the assay with HCC-2998 colon; 25.9 µM in the assay with SK-OV-3 ovarian; 3.93 µM in the assay with SK-MEL-5 melanoma. Also, the GI50 in the assay on UO-31 renal was 11.5 µM; in the assay on MDA-MB-435, 3.48 µM; in the assay on NCI-H522 lung, 2.07 µM. Also, the TGI is 11.3 µM with MCF7 breast; 33.4 µM in the assay on UACC-257 melanoma; 41.4 µM with TK-10 renal; 30 µM with HCC-2998 colon; more than 100 µM in the assay with SK-OV-3 ovarian; 18.5 µM with SK-MEL-5 melanoma. The TGI came out at 25.5 µM in the assay with UO-31 renal, 17 µM in the assay with MDA-MB-435 and 4.9 µM in the assay with NCI-H522 lung.
As for `CO[C@@]12C[C@H]3[C@@H]([C@@H](O)[C@@H](OC(=O)/C=C/c4ccccc4)[C@@]4(O)C(C)(C)CCC[C@]34C)[C@@H](C)C1=CC(=O)O2`, the GI50 with MCF7 breast is 8.68 µM; with UACC-257 melanoma, 14.4 µM; in the assay with TK-10 renal, 6.15 µM; with SK-MEL-5 melanoma, 4.55 µM; with SR leukemia, more than 100 µM; in the assay with UO-31 renal, 16.6 µM. In addition, the GI50 in the assay on MDA-MB-435 is 4.85 µM; in the assay with NCI-H522 lung it was 35.1 µM. In addition, the TGI in the assay with MCF7 breast was more than 100 µM; with UACC-257 melanoma, 32.1 µM; with TK-10 renal, more than 100 µM; in the assay on SK-MEL-5 melanoma, 18.3 µM; with SR leukemia, more than 100 µM; in the assay with UO-31 renal, more than 100 µM. Besides, the values for the TGI in the assay on MDA-MB-435 and in the assay with NCI-H522 lung were 28.2 µM and more than 100 µM, respectively.
Consider `C1=C(c2ccccc2)SC=C(c2ccccc2)S1`, for which the TGI with MCF7 breast was 48.2 µM; with UACC-257 melanoma, more than 100 µM; in the assay on TK-10 renal, more than 100 µM; with SK-OV-3 ovarian, more than 100 µM; with SK-MEL-5 melanoma, 77.9 µM; in the assay with UO-31 renal it was more than 100 µM. Further, in the assay with MDA-MB-435, the TGI turned out to be 32.2 µM.
Take `COc1cc(-c2cc(/C=C3\C(=O)Nc4ccccc43)[nH]n2)cc(OC)c1OC`: the GI50 in the assay on MCF7 breast is 2.77 µM; in the assay on UACC-257 melanoma, 2.37 µM; in the assay on HCC-2998 colon, 13.1 µM; in the assay on SK-OV-3 ovarian, 5 µM; in the assay on SK-MEL-5 melanoma, 1.57 µM; in the assay with SR leukemia, 2.89 µM. The figures for the GI50 with UO-31 renal, in the assay on MDA-MB-435 and in the assay on NCI-H522 lung were 1.91 µM, 2.38 µM and 1.99 µM, respectively. Moreover, the TGI is 11 µM with MCF7 breast; 6.56 µM with UACC-257 melanoma; 29.4 µM with HCC-2998 colon; 26.7 µM in the assay on SK-OV-3 ovarian; 3.45 µM in the assay on SK-MEL-5 melanoma; 14.8 µM with SR leukemia. For the same molecule, the figures for the TGI in the assay on UO-31 renal, with MDA-MB-435 and in the assay with NCI-H522 lung were 12.2 µM, 6.25 µM and 6.3 µM, respectively.
